Paper PMC3399817 (PLoS ONE, 2012)

Assays:
Assay in all cases: KINOMEscan
Type in all cases: binding
FGFR2 = molecular target: T1, FGFR2 (Homo sapiens, UniProt P21802); details: FGFR2, 1 uM
T1 construct: purchased Ambit KINOMEscan (DiscoverX)
Outline: (§1)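 Test concentration 1 μM for all compounds. Values reflect interference with substrate binding, not catalytic turnover.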

EPHB2 = molecular target: T2, EPHB2 (Homo sapiens, UniProt P29323); details: EPHB2, 1 uM
T2 construct: purchased Ambit KINOMEscan (DiscoverX)
Outline: as §1

CTK = molecular target: T3, CTK (Homo sapiens, UniProt P42679); details: 1 uM
T3 construct: purchased Ambit KINOMEscan (DiscoverX)
T3 sequence (P42679 whole entry): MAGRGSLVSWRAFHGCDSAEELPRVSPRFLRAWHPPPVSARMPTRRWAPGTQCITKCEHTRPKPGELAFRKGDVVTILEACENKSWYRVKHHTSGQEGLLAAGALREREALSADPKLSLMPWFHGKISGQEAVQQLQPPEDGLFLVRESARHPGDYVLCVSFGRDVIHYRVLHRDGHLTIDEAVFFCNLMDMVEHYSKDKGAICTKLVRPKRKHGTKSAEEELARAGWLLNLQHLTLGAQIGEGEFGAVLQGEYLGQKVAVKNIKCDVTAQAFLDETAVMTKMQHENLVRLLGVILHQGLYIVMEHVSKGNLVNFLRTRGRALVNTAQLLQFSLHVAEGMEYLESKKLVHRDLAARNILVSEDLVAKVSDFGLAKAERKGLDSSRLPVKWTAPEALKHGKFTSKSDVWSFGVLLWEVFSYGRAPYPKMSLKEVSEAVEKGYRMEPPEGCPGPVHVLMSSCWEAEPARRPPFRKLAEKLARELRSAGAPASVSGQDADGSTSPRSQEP
Outline: as §1

CSF1R = molecular target: T4, CSF1R (Homo sapiens, UniProt P07333); details: 1 uM
T4 construct: purchased Ambit KINOMEscan (DiscoverX)
Outline: as §1

TNNI3K = molecular target: T5, TNNI3K (Homo sapiens, UniProt Q59H18); details: 1 uM
T5 construct: purchased Ambit KINOMEscan (DiscoverX)
Outline: as §1

PRKG2 = molecular target: T6, PRKG2 (Homo sapiens, UniProt Q13237); details: PRKG2, 1 uM
T6 construct: purchased Ambit KINOMEscan (DiscoverX)
Outline: as §1

DMPK2 = molecular target: T7, DMPK2 (Homo sapiens, UniProt Q6DT37); details: DMPK2, 1 uM
T7 construct: purchased Ambit KINOMEscan (DiscoverX)
T7 sequence (Q6DT37 whole entry): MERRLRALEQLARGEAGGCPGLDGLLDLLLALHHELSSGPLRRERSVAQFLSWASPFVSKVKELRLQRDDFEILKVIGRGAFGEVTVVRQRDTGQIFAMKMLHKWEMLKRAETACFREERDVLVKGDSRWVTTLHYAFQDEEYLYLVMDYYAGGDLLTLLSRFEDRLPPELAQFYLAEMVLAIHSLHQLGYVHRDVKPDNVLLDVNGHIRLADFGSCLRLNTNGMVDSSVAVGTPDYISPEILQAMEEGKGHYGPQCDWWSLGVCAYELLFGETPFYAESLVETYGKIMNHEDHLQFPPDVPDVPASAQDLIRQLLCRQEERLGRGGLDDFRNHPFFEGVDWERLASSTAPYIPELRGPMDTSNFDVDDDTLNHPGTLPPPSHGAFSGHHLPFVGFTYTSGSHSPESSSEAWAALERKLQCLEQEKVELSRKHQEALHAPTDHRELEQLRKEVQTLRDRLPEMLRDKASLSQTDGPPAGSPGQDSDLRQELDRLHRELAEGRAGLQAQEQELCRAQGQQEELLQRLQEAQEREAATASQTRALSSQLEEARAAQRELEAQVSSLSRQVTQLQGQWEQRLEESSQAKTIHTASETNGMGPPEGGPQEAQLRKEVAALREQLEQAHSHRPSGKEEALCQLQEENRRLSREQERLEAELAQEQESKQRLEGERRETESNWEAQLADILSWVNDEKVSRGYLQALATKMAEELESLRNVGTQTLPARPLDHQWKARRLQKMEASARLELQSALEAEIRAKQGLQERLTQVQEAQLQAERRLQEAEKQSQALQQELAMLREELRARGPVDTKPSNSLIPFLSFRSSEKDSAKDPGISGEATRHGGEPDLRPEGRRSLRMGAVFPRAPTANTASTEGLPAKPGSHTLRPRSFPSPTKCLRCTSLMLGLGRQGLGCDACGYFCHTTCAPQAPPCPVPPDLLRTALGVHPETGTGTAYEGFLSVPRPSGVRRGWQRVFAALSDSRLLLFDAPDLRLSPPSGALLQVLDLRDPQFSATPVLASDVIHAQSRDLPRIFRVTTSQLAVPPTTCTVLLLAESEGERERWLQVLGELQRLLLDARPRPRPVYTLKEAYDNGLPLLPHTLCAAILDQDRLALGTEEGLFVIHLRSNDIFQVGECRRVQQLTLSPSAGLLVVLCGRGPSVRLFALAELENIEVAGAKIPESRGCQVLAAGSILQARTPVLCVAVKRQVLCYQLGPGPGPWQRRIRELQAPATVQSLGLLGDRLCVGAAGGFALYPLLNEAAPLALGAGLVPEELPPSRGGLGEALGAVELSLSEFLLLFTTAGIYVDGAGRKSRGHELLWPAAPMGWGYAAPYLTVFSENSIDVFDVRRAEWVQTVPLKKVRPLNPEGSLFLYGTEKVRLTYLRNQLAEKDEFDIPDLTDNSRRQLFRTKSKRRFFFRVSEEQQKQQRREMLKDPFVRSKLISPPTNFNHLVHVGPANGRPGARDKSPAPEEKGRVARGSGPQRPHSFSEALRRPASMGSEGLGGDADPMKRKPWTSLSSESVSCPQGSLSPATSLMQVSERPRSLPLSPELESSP
Outline: as §1

MET = molecular target: T8, MET (Homo sapiens, UniProt P08581); details: 1 uM
T8 construct: purchased Ambit KINOMEscan (DiscoverX)
Outline: as §1

MLK3 = molecular target: T9, MLK3 (Homo sapiens, UniProt Q16584); details: MLK3, 1 uM
T9 construct: purchased Ambit KINOMEscan (DiscoverX)
Outline: as §1

ROS1 = molecular target: T10, ROS1 (Homo sapiens, UniProt P08922); details: ROS1, 1 uM
T10 construct: purchased Ambit KINOMEscan (DiscoverX)
Outline: as §1

CDKL2 = molecular target: T11, CDKL2 (Homo sapiens, UniProt Q92772); details: CDKL2, 1 uM
T11 construct: purchased Ambit KINOMEscan (DiscoverX)
Outline: as §1

IKK-epsilon = molecular target: T12, IKK-epsilon (Homo sapiens, UniProt Q14164); details: 1 uM
T12 construct: purchased Ambit KINOMEscan (DiscoverX)
Outline: as §1

MAP4K4 = molecular target: T13, MAP4K4 (Homo sapiens, UniProt O95819); details: MAP4K4, 1 uM
T13 construct: purchased Ambit KINOMEscan (DiscoverX)
Outline: as §1

[1] = molecular target: T14, RPS6KA4(Kin.Dom.2-C-terminal) (Homo sapiens, UniProt O75676); details: 1 uM
T14 construct: RPS6KA4(Kin.Dom.2-C-terminal); purchased Ambit KINOMEscan (DiscoverX)
T14 sequence (O75676 372-772 limits assumed): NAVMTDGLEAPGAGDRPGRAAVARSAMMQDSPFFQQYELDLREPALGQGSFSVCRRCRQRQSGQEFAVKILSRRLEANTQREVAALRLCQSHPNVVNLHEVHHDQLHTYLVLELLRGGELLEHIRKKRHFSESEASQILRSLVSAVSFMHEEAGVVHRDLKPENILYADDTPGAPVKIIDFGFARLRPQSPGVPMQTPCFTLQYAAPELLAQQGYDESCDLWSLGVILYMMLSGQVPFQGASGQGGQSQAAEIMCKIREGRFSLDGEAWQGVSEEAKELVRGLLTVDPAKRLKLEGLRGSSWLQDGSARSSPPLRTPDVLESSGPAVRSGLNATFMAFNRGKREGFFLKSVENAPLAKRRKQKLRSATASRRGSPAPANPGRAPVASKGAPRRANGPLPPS
Outline: as §1

CIT = molecular target: T15, CIT (Homo sapiens, UniProt O14578); details: 1 uM
T15 construct: purchased Ambit KINOMEscan (DiscoverX)
Outline: as §1

AKT2 = molecular target: T16, AKT2 (Homo sapiens, UniProt P31751); details: AKT2, 1 uM
T16 construct: purchased Ambit KINOMEscan (DiscoverX)
Outline: as §1

PIK3CA(Q546K) = molecular target: T17, PIK3CA(Q546K) (Homo sapiens, UniProt P42336, Q546K); details: 1 uM
T17 construct: purchased Ambit KINOMEscan (DiscoverX)
Outline: as §1

TRKC = molecular target: T18, TRKC (Homo sapiens, UniProt Q16288); details: 1 uM
T18 construct: purchased Ambit KINOMEscan (DiscoverX)
Outline: as §1

GRK1 = molecular target: T19, GRK1 (Homo sapiens, UniProt Q15835); details: GRK1, 1 uM
T19 construct: purchased Ambit KINOMEscan (DiscoverX)
Outline: as §1

EPHA6 = molecular target: T20, EPHA6 (Homo sapiens, UniProt Q9UF33); details: EPHA6, 1 uM
T20 construct: purchased Ambit KINOMEscan (DiscoverX)
Outline: as §1

NLK = molecular target: T21, NLK (Homo sapiens, UniProt Q9UBE8); details: 1 uM
T21 construct: purchased Ambit KINOMEscan (DiscoverX)
Outline: as §1

RIOK3 = molecular target: T22, RIOK3 (Homo sapiens, UniProt O14730); details: RIOK3, 1 uM
T22 construct: purchased Ambit KINOMEscan (DiscoverX)
Outline: as §1

ERK2 = molecular target: T23, ERK2 (Homo sapiens, UniProt P28482); details: ERK2, 1 uM
T23 construct: purchased Ambit KINOMEscan (DiscoverX)
Outline: as §1

PKAC-alpha = molecular target: T24, PKAC-alpha (Homo sapiens, UniProt P17612); details: 1 uM
T24 construct: purchased Ambit KINOMEscan (DiscoverX)
Outline: as §1

FGR = molecular target: T25, FGR (Homo sapiens, UniProt P09769); details: 1 uM
T25 construct: purchased Ambit KINOMEscan (DiscoverX)
Outline: as §1

MEK4 = molecular target: T26, MEK4 (Homo sapiens, UniProt P45985); details: MEK4, 1 uM
T26 construct: purchased Ambit KINOMEscan (DiscoverX)
Outline: as §1

STK36 = molecular target: T27, STK36 (Homo sapiens, UniProt Q9NRP7); details: STK36, 1 uM
T27 construct: purchased Ambit KINOMEscan (DiscoverX)
T27 sequence (Q9NRP7 whole entry): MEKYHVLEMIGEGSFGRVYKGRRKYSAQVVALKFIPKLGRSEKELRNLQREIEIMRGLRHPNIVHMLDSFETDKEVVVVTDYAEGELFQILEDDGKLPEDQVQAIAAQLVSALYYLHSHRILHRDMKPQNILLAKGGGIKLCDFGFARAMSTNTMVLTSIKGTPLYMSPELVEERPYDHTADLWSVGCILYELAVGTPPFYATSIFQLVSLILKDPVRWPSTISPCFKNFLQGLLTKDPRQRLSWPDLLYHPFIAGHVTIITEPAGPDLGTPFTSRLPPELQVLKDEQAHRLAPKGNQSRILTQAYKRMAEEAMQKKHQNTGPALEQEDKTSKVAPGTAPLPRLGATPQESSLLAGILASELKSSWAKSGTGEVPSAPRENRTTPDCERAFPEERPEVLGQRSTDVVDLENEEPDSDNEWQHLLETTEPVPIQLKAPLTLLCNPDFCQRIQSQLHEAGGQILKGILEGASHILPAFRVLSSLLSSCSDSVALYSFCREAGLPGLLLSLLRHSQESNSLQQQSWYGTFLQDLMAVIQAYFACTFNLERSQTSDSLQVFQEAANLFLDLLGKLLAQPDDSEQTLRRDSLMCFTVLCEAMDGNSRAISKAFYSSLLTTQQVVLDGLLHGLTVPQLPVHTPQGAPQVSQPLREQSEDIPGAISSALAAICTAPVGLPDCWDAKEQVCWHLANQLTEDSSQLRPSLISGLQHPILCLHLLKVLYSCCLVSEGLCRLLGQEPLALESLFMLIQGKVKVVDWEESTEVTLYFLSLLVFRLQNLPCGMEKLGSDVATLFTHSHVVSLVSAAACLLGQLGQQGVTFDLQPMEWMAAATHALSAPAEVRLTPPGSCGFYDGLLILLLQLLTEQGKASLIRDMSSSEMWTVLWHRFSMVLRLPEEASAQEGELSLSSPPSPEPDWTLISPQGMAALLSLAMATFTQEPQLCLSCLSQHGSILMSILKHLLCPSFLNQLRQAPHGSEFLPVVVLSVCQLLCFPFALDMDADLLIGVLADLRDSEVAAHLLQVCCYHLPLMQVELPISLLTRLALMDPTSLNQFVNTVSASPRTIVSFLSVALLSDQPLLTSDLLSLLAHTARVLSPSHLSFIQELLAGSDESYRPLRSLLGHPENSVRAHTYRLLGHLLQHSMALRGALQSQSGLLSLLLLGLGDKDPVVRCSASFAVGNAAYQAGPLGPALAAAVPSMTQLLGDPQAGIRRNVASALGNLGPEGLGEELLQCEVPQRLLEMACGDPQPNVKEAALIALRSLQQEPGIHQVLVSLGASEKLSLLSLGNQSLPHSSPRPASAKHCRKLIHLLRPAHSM
Outline: as §1

CAMK2D = molecular target: T28, CAMK2D (Homo sapiens, UniProt Q13557); details: 1 uM
T28 construct: purchased Ambit KINOMEscan (DiscoverX)
Outline: as §1

DRAK2 = molecular target: T29, DRAK2 (Homo sapiens, UniProt O94768); details: DRAK2, 1 uM
T29 construct: purchased Ambit KINOMEscan (DiscoverX)
Outline: as §1

CSNK1G3 = molecular target: T30, CSNK1G3 (Homo sapiens, UniProt Q9Y6M4); details: CSNK1G3, 1 uM
T30 construct: purchased Ambit KINOMEscan (DiscoverX)
T30 sequence (Q9Y6M4 whole entry): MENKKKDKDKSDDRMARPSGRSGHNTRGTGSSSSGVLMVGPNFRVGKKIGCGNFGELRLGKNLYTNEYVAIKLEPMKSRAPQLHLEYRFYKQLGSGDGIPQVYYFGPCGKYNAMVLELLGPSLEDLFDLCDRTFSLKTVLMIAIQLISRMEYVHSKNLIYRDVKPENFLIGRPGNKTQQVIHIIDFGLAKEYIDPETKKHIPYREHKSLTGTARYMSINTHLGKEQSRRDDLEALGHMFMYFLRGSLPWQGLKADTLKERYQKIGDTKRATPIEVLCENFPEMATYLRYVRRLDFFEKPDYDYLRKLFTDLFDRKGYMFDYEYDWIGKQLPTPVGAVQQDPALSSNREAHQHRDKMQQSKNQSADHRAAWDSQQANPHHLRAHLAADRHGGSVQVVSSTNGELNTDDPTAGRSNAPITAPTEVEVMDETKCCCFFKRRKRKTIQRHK
Outline: as §1

ACVR1 = molecular target: T31, ACVR1 (Homo sapiens, UniProt Q04771); details: ACVR1, 1 uM
T31 construct: purchased Ambit KINOMEscan (DiscoverX)
Outline: as §1

PAK1 = molecular target: T32, PAK1 (Homo sapiens, UniProt Q13153); details: PAK1, 1 uM
T32 construct: purchased Ambit KINOMEscan (DiscoverX)
Outline: as §1

TAK1 = molecular target: T33, TAK1 (Homo sapiens, UniProt O43318); details: TAK1, 1 uM
T33 construct: purchased Ambit KINOMEscan (DiscoverX)
T33 sequence (O43318 whole entry): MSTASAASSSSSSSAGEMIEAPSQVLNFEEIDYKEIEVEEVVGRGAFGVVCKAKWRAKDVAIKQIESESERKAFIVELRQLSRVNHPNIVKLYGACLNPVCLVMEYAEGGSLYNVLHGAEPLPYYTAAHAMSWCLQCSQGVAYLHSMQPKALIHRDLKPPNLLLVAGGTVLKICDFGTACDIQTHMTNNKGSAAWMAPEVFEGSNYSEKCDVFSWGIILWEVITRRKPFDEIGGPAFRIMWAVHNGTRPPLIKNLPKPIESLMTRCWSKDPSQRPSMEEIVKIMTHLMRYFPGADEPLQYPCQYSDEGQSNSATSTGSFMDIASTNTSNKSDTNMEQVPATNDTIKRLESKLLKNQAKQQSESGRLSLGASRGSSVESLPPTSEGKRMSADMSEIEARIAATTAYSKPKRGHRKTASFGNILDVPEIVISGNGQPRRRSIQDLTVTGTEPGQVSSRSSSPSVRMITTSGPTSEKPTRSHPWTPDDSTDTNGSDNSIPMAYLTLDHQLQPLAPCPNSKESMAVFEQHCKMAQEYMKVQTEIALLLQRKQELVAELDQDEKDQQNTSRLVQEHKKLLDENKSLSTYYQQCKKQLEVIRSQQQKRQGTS
Outline: as §1

CDK3 = molecular target: T34, CDK3 (Homo sapiens, UniProt Q00526); details: CDK3, 1 uM
T34 construct: purchased Ambit KINOMEscan (DiscoverX)
Outline: as §1

EPHA3 = molecular target: T35, EPHA3 (Homo sapiens, UniProt P29320); details: EPHA3, 1 uM
T35 construct: purchased Ambit KINOMEscan (DiscoverX)
Outline: as §1

[2] = molecular target: T36, JAK3(JH1domain-catalytic) (Homo sapiens, UniProt P52333); details: 1 uM
T36 construct: JAK3(JH1domain-catalytic); purchased Ambit KINOMEscan (DiscoverX)
Outline: as §1

p38-alpha = molecular target: T37, p38-alpha (Homo sapiens, UniProt Q16539); details: 1 uM
T37 construct: purchased Ambit KINOMEscan (DiscoverX)
Outline: as §1

KIT = molecular target: T38, KIT (Homo sapiens, UniProt P10721); details: 1 uM
T38 construct: purchased Ambit KINOMEscan (DiscoverX)
Outline: as §1

CAMKK2 = molecular target: T39, CAMKK2 (Homo sapiens, UniProt Q96RR4); details: CAMKK2, 1 uM
T39 construct: purchased Ambit KINOMEscan (DiscoverX)
Outline: as §1

PRKCH = molecular target: T40, PRKCH (Homo sapiens, UniProt P24723); details: 1 uM
T40 construct: purchased Ambit KINOMEscan (DiscoverX)
Outline: as §1

Structure (SMILES)	% binding compared to no inhibitor control (FGFR2)	% binding compared to no inhibitor control (EPHB2)	% binding compared to no inhibitor control (CTK)	% binding compared to no inhibitor control (CSF1R)	% binding compared to no inhibitor control (TNNI3K)	% binding compared to no inhibitor control (PRKG2)	% binding compared to no inhibitor control (DMPK2)	% binding compared to no inhibitor control (MET)	% binding compared to no inhibitor control (MLK3)	% binding compared to no inhibitor control (ROS1)	% binding compared to no inhibitor control (CDKL2)	% binding compared to no inhibitor control (IKK-epsilon)	% binding compared to no inhibitor control (MAP4K4)	% binding compared to no inhibitor control [1]	% binding compared to no inhibitor control (CIT)	% binding compared to no inhibitor control (AKT2)	% binding compared to no inhibitor control (PIK3CA(Q546K))	% binding compared to no inhibitor control (TRKC)	% binding compared to no inhibitor control (GRK1)	% binding compared to no inhibitor control (EPHA6)	further results
COc1ccc(-c2cc3nccn3c(Nc3ncccc3C(N)=O)n2)cc1OC.Cl.Cl [BAY61-3606, 2-[7-(3,4-dimethoxyphenyl)-imidazo [1,2-c]pyrimidin-5-ylamino] nicotinamide dihydrochloride, reference compound]	100%	100%	44%	51%	100%	70%	86%	100%	77%	45%	78%	33%	94%	60%	0.4%	79%	87%	92%	65%	97%	% binding compared to no inhibitor control (NLK): 88%; % binding compared to no inhibitor control (RIOK3): 98%; % binding compared to no inhibitor control (ERK2): 68%; % binding compared to no inhibitor control (PKAC-alpha): 90%; % binding compared to no inhibitor control (FGR): 80%; % binding compared to no inhibitor control (MEK4): 45%; % binding compared to no inhibitor control (STK36): 74%; % binding compared to no inhibitor control (CAMK2D): 72%; % binding compared to no inhibitor control (DRAK2): 15%; % binding compared to no inhibitor control (CSNK1G3): 81%; % binding compared to no inhibitor control (ACVR1): 78%; % binding compared to no inhibitor control (PAK1): 94%; % binding compared to no inhibitor control (TAK1): 63%; % binding compared to no inhibitor control (CDK3): 89%; % binding compared to no inhibitor control (EPHA3): 83%; % binding compared to no inhibitor control [2]: 100%; % binding compared to no inhibitor control (p38-alpha): 100%; % binding compared to no inhibitor control (KIT): 8.4%; % binding compared to no inhibitor control (CAMKK2): 51%; % binding compared to no inhibitor control (PRKCH): 58%
COc1ccccc1Nc1nc(-c2ccc(OC)c(OC)c2)cc2nccn12 [BAY derivative 6]	83%	99%	98%	42%	100%	100%	88%	100%	100%	36%	100%	96%	86%	86%	95%	100%	100%	98%	100%	100%	% binding compared to no inhibitor control (NLK): 82%; % binding compared to no inhibitor control (RIOK3): 80%; % binding compared to no inhibitor control (ERK2): 70%; % binding compared to no inhibitor control (PKAC-alpha): 72%; % binding compared to no inhibitor control (FGR): 54%; % binding compared to no inhibitor control (MEK4): 100%; % binding compared to no inhibitor control (STK36): 100%; % binding compared to no inhibitor control (CAMK2D): 100%; % binding compared to no inhibitor control (DRAK2): 100%; % binding compared to no inhibitor control (CSNK1G3): 100%; % binding compared to no inhibitor control (ACVR1): 98%; % binding compared to no inhibitor control (PAK1): 83%; % binding compared to no inhibitor control (TAK1): 96%; % binding compared to no inhibitor control (CDK3): 94%; % binding compared to no inhibitor control (EPHA3): 100%; % binding compared to no inhibitor control [2]: 100%; % binding compared to no inhibitor control (p38-alpha): 95%; % binding compared to no inhibitor control (KIT): 60%; % binding compared to no inhibitor control (CAMKK2): 100%; % binding compared to no inhibitor control (PRKCH): 100%
